{"source": "patent US20100041597A1", "about": "“PEPTIDES TARGETED TO PROTEIN KINASE C ISOFORMS AND USES THEREOF” (priority 2005, published 2010)", "key": {"PKC-β": {"tested_on": "PKC-β", "experiment": "In vitro competition with anti-PKC-β antibody, Protocol B, IMR-32 cells", "format": "binding, human", "details": "PKC-β, IMR-32, Table 8", "experimental": "The ability of the peptides PRE 2 and PRE 3 (see Table 3) to interfere with the binding of a PKC-α-specific polyclonal antibody (Santa Cruz Biotechnology, Inc.) to PKC-α was determined using a modified version of the protocol outlined above in which the test peptide was added directly to the cell extract prior to electrophoresis at a concentration of either 5× or 15× the concentration of the protein applied to each well of the gel for the Western blots (20 μg).\nPeptides PRE 2 and PRE 3 (see Table 3) were tested for their ability to interfere with the binding of a PKC-β-specific polyclonal antibody (Santa Cruz Biotechnology, Inc.) to PKC-β using the general protocol described in Example 3."}, "PKCepsilon": {"target": "T1, PKCepsilon (Homo sapiens, UniProt Q02156)", "T1 construct": "purchased", "T1 sequence (Q02156 1-737)": "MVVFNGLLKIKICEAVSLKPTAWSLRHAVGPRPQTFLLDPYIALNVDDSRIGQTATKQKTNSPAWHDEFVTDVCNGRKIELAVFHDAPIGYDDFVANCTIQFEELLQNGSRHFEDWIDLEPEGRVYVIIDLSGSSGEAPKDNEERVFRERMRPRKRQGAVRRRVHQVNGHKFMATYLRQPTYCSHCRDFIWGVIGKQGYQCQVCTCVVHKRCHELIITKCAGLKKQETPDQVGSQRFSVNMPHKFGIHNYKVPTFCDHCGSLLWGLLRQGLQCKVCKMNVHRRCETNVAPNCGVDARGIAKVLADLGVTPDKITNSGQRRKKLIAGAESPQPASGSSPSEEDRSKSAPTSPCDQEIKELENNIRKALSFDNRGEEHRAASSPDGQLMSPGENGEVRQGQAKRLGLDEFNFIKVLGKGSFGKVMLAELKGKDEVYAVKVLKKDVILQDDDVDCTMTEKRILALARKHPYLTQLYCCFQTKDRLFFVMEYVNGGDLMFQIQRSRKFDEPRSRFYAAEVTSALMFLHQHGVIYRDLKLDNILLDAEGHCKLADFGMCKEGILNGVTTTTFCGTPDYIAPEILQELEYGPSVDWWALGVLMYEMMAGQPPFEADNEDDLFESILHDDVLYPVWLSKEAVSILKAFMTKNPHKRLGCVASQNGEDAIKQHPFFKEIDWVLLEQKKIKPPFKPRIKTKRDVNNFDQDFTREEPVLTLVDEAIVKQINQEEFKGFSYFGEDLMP", "experiment": "Antibody competitive binding assay with fluorescent antibody (FIG. 4)", "details": "PRE at 20× concentration", "experimental": "FIG. 4 presents data from conventional antibody competitive binding assays using PKC-α versus a representative battery of PKC isoforms (commercially available). PKC isoforms representing the three subgroups of the PKC family were assessed (classical PKCs=PKCalpha; novel PKCs=PKCdelta and epsilon; atypical PKCs=PKCzeta). Controls received the appropriate PKC isoform fluorescent antibody. Treated samples received the PRE sequence from PhGα1 (20× concentration) and the same PKC antibody. Specific affinity to PKC-α in the treated sample by the PRE will therefore decrease the amount of binding by the fluorescent antibody, represented by a decrease in fluorescent intensity in the treated sample."}}, "data": [{"substance": "Ac-AKGIQEVKGGDAQNLIGISI-NH2 [PRE 3]", "values": [{"measurement": "Band Intensity", "setting": "PKC-β; 100 μg", "result": 0.0}, {"measurement": "Inhibition (%)", "setting": "PKC-β; 100 μg", "result": 100.0, "unit": "%"}, {"measurement": "Relative Intensity (%)", "setting": "PKC-β; 100 μg", "result": 0.0, "unit": "%"}, {"measurement": "Band Intensity", "setting": "PKC-β; 200 μg", "result": 0.0}, {"measurement": "Inhibition (%)", "setting": "PKC-β; 200 μg", "result": 100.0, "unit": "%"}, {"measurement": "Relative Intensity (%)", "setting": "PKC-β; 200 μg", "result": 0.0, "unit": "%"}, {"measurement": "Band Intensity", "setting": "PKC-β; 300 μg", "result": 0.0}, {"measurement": "Inhibition (%)", "setting": "PKC-β; 300 μg", "result": 100.0, "unit": "%"}, {"measurement": "Relative Intensity (%)", "setting": "PKC-β; 300 μg", "result": 0.0, "unit": "%"}]}, {"substance": "Ac-KDAQNLIGISI-NH2 [PRE 4, Ac-KDAQNLIGISI-NH2]", "values": [{"measurement": "effect on fluorescent antibody binding to PKCepsilon", "setting": "PKCepsilon", "result": "not with PKCdelta, epsilon or zeta"}]}]}
